In ChEMBL document CHEMBL5523679, “Discovery of 1,2,3-triazole incorporated indole-piperazines as potent antitubercular agents: Design, synthesis, in vitro biological evaluation, molecular docking and ADME studies” (Bioorg Med Chem, 2024) one finds zone of inhibition and MIC data, which are given here for twelve compounds.

The subject of one assay is Pseudomonas aeruginosa. The assay is described as follows: Antibacterial activity against Pseudomonas aeruginosa assessed as inhibition zone at 50 ug/ml by diffusion method. Format: functional. The conditions noted are these: read-out: IZ.
`O=C(CCc1c[nH]c2ccccc12)N1CCN(C(=O)c2ccccc2)CC1`: the zone of inhibition at 50 µg/mL came out at 10 mm.
Same read-out and setting: the figure for `O=C(Cc1cn(Cc2ccc(F)cc2)c2ccccc12)N1CCN(C(=O)c2ccccc2)CC1` is 10 mm.

A further assay deals with Escherichia coli. The assay is described as follows: Antibacterial activity against Escherichia coli assessed as inhibition zone at 75 ug/ml by diffusion method. Format: functional. The following applies: read-out: IZ.
For the compound `O=C(Cc1cn(Cc2ccc(F)cc2)c2ccccc12)N1CCN(S(=O)(=O)c2ccc(F)cc2)CC1`, the zone of inhibition at 75 µg/mL amounted to 18 mm.
The same measure, in the same setting: the figure for `Cc1ccc(S(=O)(=O)N2CCN(C(=O)CCc3cn(Cc4ccc(F)cc4)c4ccccc34)CC2)cc1` is 18 mm; for `O=C(CCc1c[nH]c2ccccc12)N1CCN(S(=O)(=O)c2ccc(Cl)cc2)CC1` it is 10 mm.
On the same count and under the same terms, the figure for `O=C(Cc1c[nH]c2ccccc12)N1CCN(C(=O)c2ccc(F)cc2)CC1` is 18 mm; for `Cc1ccc(C(=O)N2CCN(C(=O)Cc3c[nH]c4ccccc34)CC2)cc1` it is 18 mm.
Consider `O=C(CCc1cn(Cc2cn(Cc3ccc(F)cc3)nn2)c2ccccc12)N1CCN(C(=O)c2ccc([N+](=O)[O-])cc2)CC1`, for which the zone of inhibition at 75 µg/mL amounted to 20 mm.
The same measure, in the same setting: the figure for `O=C(Cc1cn(Cc2ccc(F)cc2)c2ccccc12)N1CCN(S(=O)(=O)c2ccc(Cl)cc2)CC1` is 18 mm.
Still for that read-out and setting: the figure for `O=C(CCc1c[nH]c2ccccc12)N1CCN(C(=O)c2ccccc2)CC1` is 15 mm; for `Cc1ccc(S(=O)(=O)N2CCN(C(=O)Cc3cn(Cc4ccc(F)cc4)c4ccccc34)CC2)cc1` it is 18 mm.
On the same count and under the same terms, the figure for `O=C(Cc1cn(Cc2ccc(F)cc2)c2ccccc12)N1CCN(C(=O)c2ccccc2)CC1` is 12 mm.

The next assay has as its system Mycobacterium tuberculosis. The assay is described as follows: Antimycobacterial activity against Mycobacterium tuberculosis H37Rv assessed as bacterial growth inhibition by microplate Alamar blue assay.
Conditions: not given
Format: functional. In general terms: Alamar Blue is a resazurin reagent that responds to reducing activity.
The MIC is the lowest concentration that inhibits growth of the organism. For `O=C(Cc1cn(Cc2ccc(F)cc2)c2ccccc12)N1CCN(S(=O)(=O)c2ccc(F)cc2)CC1`, the minimal inhibitory concentration (MIC) came out at 24.5 µM.
Still for that read-out and setting: the figure for `Cc1ccc(S(=O)(=O)N2CCN(C(=O)CCc3cn(Cc4ccc(F)cc4)c4ccccc34)CC2)cc1` is 48.1 µM; for `NC(=O)c1cnccn1` [PYRAZINAMIDE] it is 25.3 µM.
The same measure, in the same setting: the figure for `O=C(CCc1c[nH]c2ccccc12)N1CCN(S(=O)(=O)c2ccc(Cl)cc2)CC1` is 57.8 µM; for `O=C(Cc1c[nH]c2ccccc12)N1CCN(C(=O)c2ccc(F)cc2)CC1` it is 68.4 µM.
As to `NNC(=O)c1ccncc1` [ISONIAZID], the MIC is 11.7 µM.
Still for that read-out and setting: the figure for `Cc1ccc(C(=O)N2CCN(C(=O)Cc3c[nH]c4ccccc34)CC2)cc1` is over 120 µM; for `O=C(CCc1cn(Cc2cn(Cc3ccc(F)cc3)nn2)c2ccccc12)N1CCN(C(=O)c2ccc([N+](=O)[O-])cc2)CC1` it is 21 µM; for `O=C(Cc1cn(Cc2ccc(F)cc2)c2ccccc12)N1CCN(S(=O)(=O)c2ccc(Cl)cc2)CC1` it is 23.8 µM.
The same measure, in the same setting: the figure for `O=C(CCc1c[nH]c2ccccc12)N1CCN(C(=O)c2ccccc2)CC1` is over 120 µM; for `Cc1ccc(S(=O)(=O)N2CCN(C(=O)Cc3cn(Cc4ccc(F)cc4)c4ccccc34)CC2)cc1` it is 49.4 µM.
Still for that read-out and setting: the figure for `O=C(Cc1cn(Cc2ccc(F)cc2)c2ccccc12)N1CCN(C(=O)c2ccccc2)CC1` is over 120 µM.

The next assay deals with Staphylococcus aureus. Description: Antibacterial activity against Staphylococcus aureus assessed as inhibition zone at 25 ug/ml by diffusion method. Format: functional. The following applies: read-out: IZ.
As to `O=C(Cc1cn(Cc2ccc(F)cc2)c2ccccc12)N1CCN(S(=O)(=O)c2ccc(F)cc2)CC1`, the zone of inhibition at 25 µg/mL was 15 mm.
As for `Cc1ccc(S(=O)(=O)N2CCN(C(=O)CCc3cn(Cc4ccc(F)cc4)c4ccccc34)CC2)cc1`, the zone of inhibition at 25 µg/mL is 15 mm.
Same read-out and setting: the figure for `Cc1ccc(C(=O)N2CCN(C(=O)Cc3c[nH]c4ccccc34)CC2)cc1` is 12 mm; for `O=C(CCc1cn(Cc2cn(Cc3ccc(F)cc3)nn2)c2ccccc12)N1CCN(C(=O)c2ccc([N+](=O)[O-])cc2)CC1` it is 10 mm; for `O=C(Cc1cn(Cc2ccc(F)cc2)c2ccccc12)N1CCN(S(=O)(=O)c2ccc(Cl)cc2)CC1` it is 15 mm.
On the same count and under the same terms, the figure for `Cc1ccc(S(=O)(=O)N2CCN(C(=O)Cc3cn(Cc4ccc(F)cc4)c4ccccc34)CC2)cc1` is 13 mm; for `O=C(Cc1cn(Cc2ccc(F)cc2)c2ccccc12)N1CCN(C(=O)c2ccccc2)CC1` it is 13 mm.

The next assay has as its system Pseudomonas aeruginosa. Description: Antibacterial activity against Pseudomonas aeruginosa assessed as inhibition zone at 75 ug/ml by diffusion method. Format: functional. The following applies: read-out: IZ.
As to `O=C(Cc1cn(Cc2ccc(F)cc2)c2ccccc12)N1CCN(S(=O)(=O)c2ccc(F)cc2)CC1`, the zone of inhibition at 75 µg/mL was 18 mm.
The same measure, in the same setting: the figure for `Cc1ccc(S(=O)(=O)N2CCN(C(=O)CCc3cn(Cc4ccc(F)cc4)c4ccccc34)CC2)cc1` is 10 mm.
On the same count and under the same terms, the figure for `O=C(CCc1c[nH]c2ccccc12)N1CCN(S(=O)(=O)c2ccc(Cl)cc2)CC1` is 10 mm; for `O=C(Cc1c[nH]c2ccccc12)N1CCN(C(=O)c2ccc(F)cc2)CC1` it is 10 mm; for `Cc1ccc(C(=O)N2CCN(C(=O)Cc3c[nH]c4ccccc34)CC2)cc1` it is 10 mm.
Consider `O=C(CCc1cn(Cc2cn(Cc3ccc(F)cc3)nn2)c2ccccc12)N1CCN(C(=O)c2ccc([N+](=O)[O-])cc2)CC1`, for which the zone of inhibition at 75 µg/mL is 13 mm.
On the same count and under the same terms, the figure for `O=C(Cc1cn(Cc2ccc(F)cc2)c2ccccc12)N1CCN(S(=O)(=O)c2ccc(Cl)cc2)CC1` is 13 mm.
Regarding `O=C(CCc1c[nH]c2ccccc12)N1CCN(C(=O)c2ccccc2)CC1`, the zone of inhibition at 75 µg/mL worked out at 12 mm.
The same measure, in the same setting: the figure for `Cc1ccc(S(=O)(=O)N2CCN(C(=O)Cc3cn(Cc4ccc(F)cc4)c4ccccc34)CC2)cc1` is 13 mm; for `O=C(Cc1cn(Cc2ccc(F)cc2)c2ccccc12)N1CCN(C(=O)c2ccccc2)CC1` it is 12 mm.

A further assay deals with Escherichia coli. Description: Antibacterial activity against Escherichia coli assessed as inhibition zone at 25 ug/ml by diffusion method. The conditions noted are these: read-out: IZ. It is filed as functional.
For `O=C(CCc1cn(Cc2cn(Cc3ccc(F)cc3)nn2)c2ccccc12)N1CCN(C(=O)c2ccc([N+](=O)[O-])cc2)CC1`, the zone of inhibition at 25 µg/mL was found to be 15 mm.

The next assay has as its system Staphylococcus aureus. Description: Antibacterial activity against Staphylococcus aureus assessed as inhibition zone at 75 ug/ml by diffusion method. It is filed as functional. The conditions noted are these: read-out: IZ.
For `O=C(Cc1cn(Cc2ccc(F)cc2)c2ccccc12)N1CCN(S(=O)(=O)c2ccc(F)cc2)CC1`, the zone of inhibition at 75 µg/mL was 20 mm.
The same measure, in the same setting: the figure for `Cc1ccc(S(=O)(=O)N2CCN(C(=O)CCc3cn(Cc4ccc(F)cc4)c4ccccc34)CC2)cc1` is 23 mm; for `O=C(CCc1c[nH]c2ccccc12)N1CCN(S(=O)(=O)c2ccc(Cl)cc2)CC1` it is 13 mm.
On the same count and under the same terms, the figure for `O=C(Cc1c[nH]c2ccccc12)N1CCN(C(=O)c2ccc(F)cc2)CC1` is 20 mm; for `Cc1ccc(C(=O)N2CCN(C(=O)Cc3c[nH]c4ccccc34)CC2)cc1` it is 15 mm.
On the same count and under the same terms, the figure for `O=C(CCc1cn(Cc2cn(Cc3ccc(F)cc3)nn2)c2ccccc12)N1CCN(C(=O)c2ccc([N+](=O)[O-])cc2)CC1` is 20 mm.
On to `O=C(Cc1cn(Cc2ccc(F)cc2)c2ccccc12)N1CCN(S(=O)(=O)c2ccc(Cl)cc2)CC1`, for which the zone of inhibition at 75 µg/mL came out at 22 mm.
Still for that read-out and setting: the figure for `O=C(CCc1c[nH]c2ccccc12)N1CCN(C(=O)c2ccccc2)CC1` is 15 mm; for `Cc1ccc(S(=O)(=O)N2CCN(C(=O)Cc3cn(Cc4ccc(F)cc4)c4ccccc34)CC2)cc1` it is 22 mm.
Same read-out and setting: the figure for `O=C(Cc1cn(Cc2ccc(F)cc2)c2ccccc12)N1CCN(C(=O)c2ccccc2)CC1` is 23 mm.

The next assay deals with Staphylococcus aureus. Description: Antibacterial activity against Staphylococcus aureus assessed as inhibition zone at 50 ug/ml by diffusion method. It is filed as functional. The following applies: read-out: IZ.
Consider `O=C(Cc1cn(Cc2ccc(F)cc2)c2ccccc12)N1CCN(S(=O)(=O)c2ccc(F)cc2)CC1`, for which the zone of inhibition at 50 µg/mL is 18 mm.
Still for that read-out and setting: the figure for `Cc1ccc(S(=O)(=O)N2CCN(C(=O)CCc3cn(Cc4ccc(F)cc4)c4ccccc34)CC2)cc1` is 18 mm; for `O=C(CCc1c[nH]c2ccccc12)N1CCN(S(=O)(=O)c2ccc(Cl)cc2)CC1` it is 10 mm; for `O=C(Cc1c[nH]c2ccccc12)N1CCN(C(=O)c2ccc(F)cc2)CC1` it is 13 mm.
Same read-out and setting: the figure for `Cc1ccc(C(=O)N2CCN(C(=O)Cc3c[nH]c4ccccc34)CC2)cc1` is 13 mm.
Still for that read-out and setting: the figure for `O=C(CCc1cn(Cc2cn(Cc3ccc(F)cc3)nn2)c2ccccc12)N1CCN(C(=O)c2ccc([N+](=O)[O-])cc2)CC1` is 13 mm; for `O=C(Cc1cn(Cc2ccc(F)cc2)c2ccccc12)N1CCN(S(=O)(=O)c2ccc(Cl)cc2)CC1` it is 18 mm; for `O=C(CCc1c[nH]c2ccccc12)N1CCN(C(=O)c2ccccc2)CC1` it is 13 mm.
`Cc1ccc(S(=O)(=O)N2CCN(C(=O)Cc3cn(Cc4ccc(F)cc4)c4ccccc34)CC2)cc1`: the zone of inhibition at 50 µg/mL is 18 mm.
Consider `O=C(Cc1cn(Cc2ccc(F)cc2)c2ccccc12)N1CCN(C(=O)c2ccccc2)CC1`, for which the zone of inhibition at 50 µg/mL is 17 mm.

The test system of another assay is Escherichia coli. Description: Antibacterial activity against Escherichia coli assessed as inhibition zone at 50 ug/ml by diffusion method. Format: functional. The following applies: read-out: IZ.
In the case of `O=C(Cc1cn(Cc2ccc(F)cc2)c2ccccc12)N1CCN(S(=O)(=O)c2ccc(F)cc2)CC1`, the zone of inhibition at 50 µg/mL worked out at 13 mm.
On the same count and under the same terms, the figure for `Cc1ccc(S(=O)(=O)N2CCN(C(=O)CCc3cn(Cc4ccc(F)cc4)c4ccccc34)CC2)cc1` is 15 mm; for `O=C(CCc1c[nH]c2ccccc12)N1CCN(S(=O)(=O)c2ccc(Cl)cc2)CC1` it is 8 mm; for `O=C(Cc1c[nH]c2ccccc12)N1CCN(C(=O)c2ccc(F)cc2)CC1` it is 15 mm.
On the same count and under the same terms, the figure for `Cc1ccc(C(=O)N2CCN(C(=O)Cc3c[nH]c4ccccc34)CC2)cc1` is 12 mm; for `O=C(CCc1cn(Cc2cn(Cc3ccc(F)cc3)nn2)c2ccccc12)N1CCN(C(=O)c2ccc([N+](=O)[O-])cc2)CC1` it is 19 mm.
Same read-out and setting: the figure for `O=C(Cc1cn(Cc2ccc(F)cc2)c2ccccc12)N1CCN(S(=O)(=O)c2ccc(Cl)cc2)CC1` is 15 mm.
In the case of `O=C(CCc1c[nH]c2ccccc12)N1CCN(C(=O)c2ccccc2)CC1`, the zone of inhibition at 50 µg/mL came to 13 mm.
Same read-out and setting: the figure for `Cc1ccc(S(=O)(=O)N2CCN(C(=O)Cc3cn(Cc4ccc(F)cc4)c4ccccc34)CC2)cc1` is 15 mm.
Still for that read-out and setting: the figure for `O=C(Cc1cn(Cc2ccc(F)cc2)c2ccccc12)N1CCN(C(=O)c2ccccc2)CC1` is 10 mm.
